Test results reported in patent publication US20100249165A1, “PDZ DOMAIN MODULATORS” (University of Copenhagen, priority 2007, published 2010).
“Also recorded” adds a separate entry of the source. Peptide text beside a SMILES is read from it.

Key:
[1] = biological target: T1, PDZ domain of PICK1 (Rattus norvegicus, UniProt Q9EP80); assay: Fluorescence polarization competition binding to PICK1 (Oregon Green-labeled DAT peptide tracer); conditions: for potency in displacing the fluorescently tagged tracer (in words): unlabeled peptide titrated against fixed PICK1 and labeled DAT peptide; for Ki: competition with DAT13 OrG tracer 40 nM, fixed subsaturating PICK1, 15 min incubation, means of three independent experiments, read-out: Ki (μM) [SE interval]
T1 construct: The entire coding region of rat PICK1 (residues 2-416); GST (N, cleaved yes); made in house; host or cells: E. coli BL21(DE3) pLysS
T1 sequence (Q9EP80 2-416): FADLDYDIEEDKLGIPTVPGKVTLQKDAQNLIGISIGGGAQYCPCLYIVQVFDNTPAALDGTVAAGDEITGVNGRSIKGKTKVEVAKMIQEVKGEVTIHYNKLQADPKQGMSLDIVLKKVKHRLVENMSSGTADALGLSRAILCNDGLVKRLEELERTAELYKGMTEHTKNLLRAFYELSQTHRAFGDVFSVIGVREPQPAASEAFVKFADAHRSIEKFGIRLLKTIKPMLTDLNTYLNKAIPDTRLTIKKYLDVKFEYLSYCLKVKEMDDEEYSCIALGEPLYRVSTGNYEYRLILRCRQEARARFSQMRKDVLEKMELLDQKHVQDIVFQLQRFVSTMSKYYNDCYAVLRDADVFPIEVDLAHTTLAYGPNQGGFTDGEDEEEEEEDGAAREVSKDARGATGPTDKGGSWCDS
From the text: (§1) The entire coding region of rat PICK1 (residues 2-416) is amplified from a pCINEO vector by PCR using pfu polymerase according to the instructions by the manufacturer (Stratagene, La Jolla, Calif.). The primers used introduce a 5′ restriction site for MunI and 3′ restriction site for AvrII. The PCR fragment is cleaved with MunI and AvrII and cloned into the reading frame of the pET41a vector (Novagen, Madison, Wis.) producing an N-terminally glutathione-S-transferase (GST) fusion of PICK1. The GST-PICK1 fusion was expressed in E. coli BL21(DE3) pLysS (Novagen). The transformed bacteria are grown to OD600 0.6 and expression of the fusion protein is induced with isopropyl-β-D1-thiogalactopyranoside (105 μM) overnight at 30° C. The bacteria are lysed by freezing and thawing in TBS buffer containing [50 mM Tris pH 7.4, 125 mM NaCl, 1% TX-100, 20 μg/mL DNAse I, 1 mM DTT (Sigma)]. The lysate is cleared by centrifugation (rotor SS-34, 18000 rpm, 48000×g, 30 min). The supernatant is incubated with glutathione-sepharose beads (Amersham Biosciences) under slow rotation for 90 minutes at 4° C. The beads are pelleted at 3500 g for 5 minutes and washed in TBS buffer containing [50 mM Tris pH 7.4, 125 mM NaCl, 0.1% TX-100, 1 mM DTT] by three batch washes. The protein is separated from the GST domain by cleavage with thrombin protease (Novagen) in the above wash buffer at 4° C. overnight. Samples of 10 μl are taken from the protein solution for determination of protein concentration and for analysis by SDS-PAGE. Protein determinations are performed using the BCA Protein Assay Reagent kit (Pierce Biotechnology, Inc, Rockford, Ill.) according to manufactures protocol using bovine serum albumin as standard. Gels are stained with GelCode Blue Stain Reagent (Pierce Biotechnology) in order to inspect size, integrity and purity of the protein (Madsen et al., JBC, 280, 20539-48, 2005).
This assay is used to screen for compounds binding to the PDZ binding groove in PICK1. The assay is based on the predicted decrease in rotational diffusion of a fluorescently labeled peptide upon its binding to a larger protein. The decrease in rotational diffusion upon binding of a fluorescent labeled peptide to PICK1 can be detected as an increase in fluorescence polarization (FP). Binding of a small-molecule compound to the PDZ binding groove can be detected by its ability to displace the fluorescently labeled peptide resulting in a decreased in FP (Madsen et al., JBC, 280, 20539-48, 2005).
To perform the assay, compounds are loaded (10 μl of each) in microtiter-plates (88 compounds per 96 well plate) (Corning) at a concentration of 1 mM in DMSO. To each well is added 90 μl buffer containing Tris base (50 mM), NaCl (125 mM), TX-100 (0.1%), PICK1 (0.45 μM) and fluorescently labeled peptide. This peptide corresponds to the C-terminus of a protein that binds to the PICK1 PDZ domain. For example, the peptide can correspond to the last 13 C-terminal residues of the DAT, of protein kinase Cα or of the GluR2 subunit of the AMPA reaceptor. The peptide can be labeled with any fluorophore. For example it can be labeled with a sulfhydryl-reactive derivative of Oregon Green via a cysteine introduced in the peptide. The peptide is used in a concentration of about 40 nM. The final concentration of the compounds in the initial screen is 100 μM. After approximately 15 min of incubation at […] the plates are analyzed in a Chameleon plate-reader (HIDEX) in the FP mode using a 488 nm excitation filter and a 535 nm long pass emission filter. Each measurement is an average of 100 flashes and is carried out four times. FP is calculated according to the equation FP=(IV−g*IH)/(IV+g*IH). As negative and positive controls, respectively, pure DMSO and DMSO with unlabeled DAT peptide (20 μM final conc.) are measured in parallel. All compounds are tested twice on separate plates.

[2] = biological target: T2, interaction between PICK1 and a DAT-peptide fused to GST (Rattus norvegicus, UniProt Q9EP80); assay: GST-DAT pull-down assay of PICK1; format: binding; conditions: PICK1 band on SDS-PAGE compared with control pull-down
T2 construct: The entire coding region of rat PICK1 (residues 2-416); GST (N, cleaved yes); made in house; host or cells: E. coli BL21(DE3) pLysS
T2 sequence (Q9EP80 2-416): as above
Experimental: To verify binding of active compounds identified in the FP screen, a biochemical pulldown assay can be employed.
A fusion between GST and the 24 C-terminal amino acids of the dopamine transporter (GST DAT C24) is expressed in BL21(DE3)pLysS (Novagen) using the pET41a vector (Novagen, Madison, Wis.) and purified as described for PICK1 but without digestion with thrombin.
5 μl dry volume of glutathione-coated sepharose beads (Pharmacia) with bound GST alone or GST DAT C24 are suspended in 200 μl TBS buffer containing as follows [50 mM Tris pH 7.4, 125 mM NaCl, 0.1% TX-100, 1 mM DTT (Sigma) and PICK1 0.5 μM]. The compounds to be tested are added in DMSO to a final concentration of 200 μM (2% DMSO final concentrtaion). The last 11 amino acids of the C-terminus of the GLT1b glutamate transporter (60 μM final) and pure DMSO (2%) can be used as a positive and negative control, respectively.
The samples are incubated at 4° C. under slow rotation for 30 min. The beads are centrifuged at 4000 g for 5 min and subsequently washed in TBS buffer and recentrifuged. The beads containing bound protein are eluted in loading buffer and analyzed by 12% SDS-PAGE and proteins are stained with Gelcode blue stain reagent (Pierce). Active compounds i.e. a blocked pull-down are recognized by a reduced PICK1 band on the SDS-PAGE gel compared to the control pull-down. […]

[3] = biological target: T3, PICK1 GluR2 interaction (Rattus norvegicus, UniProt Q9EP80); assay: FRET between eCFP-GluR2 C29 and eYFP-PICK1 in COS7 cells; format: cell-based; conditions: compound added 20 min prior to image acquisition
T3 construct: expressed in transfected cells; host or cells: COS7 cells, transient transfection
T3 sequence (Q9EP80 whole entry): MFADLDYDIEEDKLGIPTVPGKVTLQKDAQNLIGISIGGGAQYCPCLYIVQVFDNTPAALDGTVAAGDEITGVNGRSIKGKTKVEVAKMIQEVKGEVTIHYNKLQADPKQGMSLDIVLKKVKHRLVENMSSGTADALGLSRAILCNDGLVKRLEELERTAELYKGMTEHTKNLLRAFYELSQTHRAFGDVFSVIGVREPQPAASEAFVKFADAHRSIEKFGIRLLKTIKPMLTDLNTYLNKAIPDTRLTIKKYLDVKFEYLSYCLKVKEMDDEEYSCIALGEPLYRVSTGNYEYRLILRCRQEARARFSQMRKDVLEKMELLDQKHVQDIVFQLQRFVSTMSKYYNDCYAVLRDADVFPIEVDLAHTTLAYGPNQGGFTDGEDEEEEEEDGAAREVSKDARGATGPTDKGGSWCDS
Experimental: To determine whether a compound is able to block binding of a PD ligand, such as the c-terminus of the AMPA receptor GluR2 subunit, to the PICK1 PDZ domain in a cellular system a Fluorescent Resonance Energy Transfer (FRET) assay can be employed. PICK1 is fused to eYFP (eYFP-PICK1) and the C-terminal 29 residues of the AMPA receptor subunit GluR2 is fused to eCFP (eCFP-GluR2 C29). As a control for specificity of the FRET signal an alanine is added to the C-terminal 29 residues of GluR2 (eCFP-GluR2 C29+A) to disrupt the PDZ interaction. […]
Fluorescence resonance energy transfer (FRET; see Schmid and Sitte, 2003) is measured with an epi-fluorescence microscope (Carl Zeiss TM210, Germany) using the “three-filter method” according to Xia and Liu (2001). […]
Media are replaced by Krebs-HBS buffer (10 mM HEPES/120 mM NaCl/3 mM KCl/2 mM CaCl2/2 mM MgCl2), and images are taken using a 63× oil objective and a LUDL filter wheel that allows for rapid exchange of filters (less than 100 ms). The system is equipped with the following fluorescence filters: CFP filter (ICFP; exc.: 436 nm, dichr.: 455 nm, em.: 480 nm), YFP filter (IYFP; exc.: 500 nm, dichr.: 515 nm, em.: 535 nm) and FRET filter (IFRET: excitation=436 nm, dichroic mirror=455 nm, emission=535 nm). […] Background fluorescence is subtracted from all images and fluorescence intensity was measured in cytosolic regions in all images. […]

[4] = biological target: T4, PICK1 (Rattus norvegicus, UniProt Q9EP80); assay: Fluorescence polarization saturation binding of fluorescently labeled peptides to PICK1
T4 construct: The entire coding region of rat PICK1 (residues 2-416); GST (N, cleaved yes); made in house; host or cells: E. coli BL21(DE3) pLysS
T4 sequence (Q9EP80 2-416): as the sequence (Q9EP80 2-416) above
From the text: as §1, with “Samples of 10 μl are taken from the protein solution for determination of protein concentration and for analysis by SDS-PAGE. Protein determinations are performed using the BCA Protein Assay Reagent kit (Pierce Biotechnology, Inc, Rockford, Ill.) according to manufactures protocol using bovine serum albumin as standard. Gels are stained with GelCode Blue Stain Reagent (Pierce Biotechnology) in order to inspect size, integrity and purity of the protein (Madsen et al., JBC, 280, 20539-48, 2005).” left out

In the case of CC(C)C[C@H](NC(=O)[C@H](Cc1c[nH]c2ccccc12)NC(=O)[C@H](Cc1c[nH]cn1)NC(=O)[C@H](CCCNC(=N)N)NC(=O)[C@H](CC(C)C)NC(=O)[C@@H](NC(=O)[C@H](Cc1ccccc1)NC(=O)[C@H](CCC(N)=O)NC(=O)[C@H](CCCNC(=N)N)NC(=O)[C@@H](NC(=O)[C@@H](N)CCC(=O)O)C(C)C)[C@@H](C)O)C(=O)N[C@@H](CCCCN)C(=O)N[C@H](C(=O)O)C(C)C [DAT peptide, reference compound] (H-EVRQFTLRHWLKV-OH; N-terminus and C-terminus assumed), the “potency in displacing the fluorescently tagged tracer (in words)” value [1] is reported as “more than one order of magnitude more potent”.
With CCOc1cc(Cl)c(Cl)c(C=O)c1O [d, 2,3-Dichloro-5-ethoxy-6-hydroxy-benzaldehyde] the Ki [1] was 67 µM.
In the case of CCOC(=O)NC(=O)/C(C#N)=C\c1ccc(Cl)c(Cl)c1 [j, [(Z)-2-Cyano-3-(3,4-dichlorophenyl)-acryloyl]-carbamic acid ethyl ester], the Ki [1] is reported as 40 µM, the “pull-down of PICK1 by GST-DAT (in words)” value [2] is reported as “inhibition; also recorded: inhibited” and the “FRET between eYFP-PICK1 and eCFP-GluR2 C29 (in words)” value ([3]; compared to vehicle (1% DMSO)) is reported as “specifically reduced; also recorded: significantly reduced”. The “FRET between eYFP-PICK1 and eCFP-GluR2 C29+A (in words)” value ([3]; specificity control construct) was “no effect”.
CC(C)(C)c1ccc(O)c(/N=C/c2cc(N=Nc3ccc(Cl)cc3)ccc2O)c1 [q, 4-tert-Butyl-2-{[1-[5-(4-chloro-phenylazo)-2-hydroxy-phenyl]-meth-(E)-ylidene]-amino}-phenol] gave a Ki [1] of 19.1 µM.
CCOC(=O)c1ccc(-c2ccc(/C=C3/C(=O)NN(c4ccc(C)c(Cl)c4)C3=O)o2)cc1 [t, 4-{5-[1-(3-Chloro-4-methyl-phenyl)-3,5-dioxo-pyrazolidin-(4Z)-ylidenemethyl]-furan-2-yl}-benzoic acid ethyl ester] was tested, and the Ki [1] was 13.7 µM.
O=C1C(=Cc2cc(Br)ccc2OCc2ccccc2)C(=O)c2ccccc21 [v, 2-(2-Benzyloxy-5-bromo-benzylidene)-indan-1,3-dione] was tested, and the Ki [1] was 7.7 µM.
Work on O=C1C(=O)c2cc([N+](=O)[O-])ccc2-c2ccccc21 [w, 2-Nitro-phenanthrene-9,10-dione] yielded a Ki [1] of 4.4 µM.
For “PKCα peptide: peptide corresponding to the 13 C-terminal residues of PKCα, type I PDZ binding sequence -QSAV (NPQFVHPILQSAV; UniProt P17252 660-672, looked up, fragment)”, the “fold lower apparent affinity than the DAT peptide” value [4] was about 10 fold.
With “β2 AR peptide: peptide corresponding to the 13 C-terminal residues of the β2 AR, type I PDZ binding sequence -DSLL; specificity control (SQGRNCSTNDSLL; UniProt P07550 401-413, looked up, fragment) [reference compound]” the “potency in displacing the fluorescently tagged tracer (in words)” value [1] was “much less potent” and the “apparent affinity (in words)” value ([4]; fluorescently labeled peptide) was “very low apparent affinity”.
